Measurements taken from ChEMBL document CHEMBL4622851, “Cytotoxicity of 4-substituted quinoline derivatives: Anticancer and antileishmanial potential” (Bioorg Med Chem, 2020).
Activity calls are given as the source filed them. The rule behind the calls is not given here.

Assays:
[1] = tested on: SK-MEL-147; experiment: Cytotoxicity against human SK-MEL-147 cells assessed as reduction in cell viability at 50 and 100 uM after 24 hrs by MTT assay; assay type: functional, cell-based
[2] = tested on: Jurkat; experiment: Cytotoxicity against human Jurkat cells assessed as reduction in cell viability at 50 and 100 uM after 24 hrs by MTT assay; assay type: functional, cell-based
[3] = tested on: SK-MEL-147; experiment: Cytotoxicity against human SK-MEL-147 cells assessed as reduction in cell viability after 24 hrs by MTT assay; assay type: functional, cell-based; conditions: SK-MEL-147, 24 h
[4] = tested on: Jurkat; experiment: Cytotoxicity against human Jurkat cells assessed as reduction in cell viability after 24 hrs by MTT assay; assay type: functional, cell-based
[5] = Inhibition of Leishmania mexicana rCPB3.0 H84Y mutant using Z-FR-AMC as substrate by spectrofluorometric analysis
[6] = Inhibition of Leishmania mexicana rCPB3.0 using Z-FR-AMC as substrate by spectrofluorometric analysis
[7] = biological target: Cysteine proteinase B (Leishmania mexicana, UniProt P36400); experiment: Inhibition of Leishmania mexicana rCPB2.8 using Z-FR-AMC as substrate by spectrofluorometric analysis
Sequence of Cysteine proteinase B (P36400 whole entry): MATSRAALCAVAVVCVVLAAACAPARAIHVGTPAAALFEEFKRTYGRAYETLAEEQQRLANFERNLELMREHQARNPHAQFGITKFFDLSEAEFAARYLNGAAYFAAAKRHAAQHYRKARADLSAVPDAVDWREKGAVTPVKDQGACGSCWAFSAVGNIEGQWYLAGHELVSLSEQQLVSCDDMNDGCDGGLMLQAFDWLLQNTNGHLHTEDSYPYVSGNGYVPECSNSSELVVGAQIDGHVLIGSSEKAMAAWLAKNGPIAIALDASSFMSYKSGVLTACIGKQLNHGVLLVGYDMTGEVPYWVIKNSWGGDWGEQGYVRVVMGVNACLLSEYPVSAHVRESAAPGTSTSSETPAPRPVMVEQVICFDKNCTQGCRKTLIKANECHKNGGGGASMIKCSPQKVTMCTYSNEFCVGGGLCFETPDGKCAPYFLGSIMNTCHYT

[8] = tested on: SK-MEL-147; experiment: Cytotoxicity against human SK-MEL-147 cells assessed as reduction in cell viability at EC50 concentration preincubated for 1 hr in presence of GSH measured after 24 hrs by MTT assay; assay type: functional, cell-based
[9] = tested on: SK-MEL-147; experiment: Induction of apoptosis in human SK-MEL-147 cells assessed as early apoptotic cells at 20 uM after 24 hrs by Annexin V-FITC/propidium iodide staining based flow cytometry; assay type: functional, cell-based
[10] = tested on: SK-MEL-147; experiment: Induction of apoptosis in human SK-MEL-147 cells assessed as late apoptotic cells at 20 uM after 24 hrs by Annexin V-FITC/propidium iodide staining based flow cytometry; assay type: functional, cell-based
[11] = tested on: SK-MEL-147; experiment: Induction of apoptosis in human SK-MEL-147 cells assessed as necrotic cells at 20 uM after 24 hrs by Annexin V-FITC/propidium iodide staining based flow cytometry; assay type: functional, cell-based
[12] = tested on: SK-MEL-147; experiment: Induction of apoptosis in human SK-MEL-147 cells assessed as mitochondrial membrane potential dissipation after 24 hrs by TMRM staining based fluorescence microscopic method; assay type: functional, cell-based
[13] = tested on: SK-MEL-147; experiment: Induction of apoptosis in human SK-MEL-147 cells assessed as increase in reactive oxygen species generation by CM-H2DCFDA staining based flow cytometric analysis; assay type: functional, cell-based
[14] = tested on: SK-MEL-147; experiment: Induction of apoptosis in human SK-MEL-147 cells assessed mitochondrial permeabilization after 24 hrs by mitotracker green staining based microscopic analysis; assay type: functional, cell-based
[15] = tested on: SK-MEL-147; experiment: Cytotoxicity against human SK-MEL-147 cells assessed as reduction in cell viability at EC50 concentration preincubated for 1 hr in presence of DTT measured after 24 hrs by MTT assay; assay type: functional, cell-based
[16] = tested on: SK-MEL-147; experiment: Cytotoxicity against human SK-MEL-147 cells assessed as reduction in cell viability at EC50 concentration preincubated for 1 hr in presence of N-acetyl cysteine measured after 24 hrs by MTT assay; assay type: functional, cell-based
[17] = tested on: SK-MEL; experiment: Cytotoxicity against human SK-MEL-147 cells assessed as reduction in cell viability at EC50 concentration preincubated for 1 hr in presence of EGTA measured after 24 hrs by MTT assay; assay type: functional, cell-based
[18] = tested on: SK-MEL; experiment: Cytotoxicity against human SK-MEL-147 cells assessed as reduction in cell viability at EC50 concentration preincubated for 1 hr in presence of BAPTA measured after 24 hrs by MTT assay; assay type: functional, cell-based
[19] = tested on: SK-MEL-147; experiment: Cytotoxicity against human SK-MEL-147 cells assessed as reduction in cell viability at EC50 concentration preincubated for 1 hr in presence of Boc-D-FMK measured after 24 hrs by MTT assay; assay type: functional, cell-based
[20] = tested on: SK-MEL-147; experiment: Cytotoxicity against human SK-MEL-147 cells assessed as reduction in cell viability at EC50 concentration preincubated for 1 hr in presence of E-64 measured after 24 hrs by MTT assay; assay type: functional, cell-based
[21] = species on record: Rattus norvegicus; experiment: Induction of mitochondrial permeabilization in rat liver mitochondria assessed as mitochondrial transmembrane potential dissipation by rhodamine-123 dye based spectrofluorometer analysis; assay type: functional
[22] = species on record: Rattus norvegicus; experiment: Induction of mitochondrial permeabilization in rat liver mitochondria assessed as calcium efflux by calcium green based spectrofluorometer analysis; assay type: functional
[23] = species on record: Rattus norvegicus; experiment: Induction of mitochondrial permeabilization in rat liver mitochondria assessed as mitochondrial transmembrane potential dissipation in presence of DTT by rhodamine-123 dye based spectrofluorometer analysis; assay type: functional
[24] = species on record: Rattus norvegicus; experiment: Induction of mitochondrial permeabilization in rat liver mitochondria assessed as mitochondrial transmembrane potential dissipation in presence of CsA by rhodamine-123 dye based spectrofluorometer analysis; assay type: functional
[25] = species on record: Rattus norvegicus; experiment: Induction of mitochondrial permeabilization in rat liver mitochondria assessed as mitochondrial transmembrane potential dissipation in presence of ADP by rhodamine-123 dye based spectrofluorometer analysis; assay type: functional
[26] = species on record: Rattus norvegicus; experiment: Induction of mitochondrial permeabilization in rat liver mitochondria assessed as calcium efflux in presence of DTT by calcium green based spectrofluorometer analysis; assay type: functional
[27] = species on record: Rattus norvegicus; experiment: Induction of mitochondrial permeabilization in rat liver mitochondria assessed as calcium efflux in presence of CsA by calcium green based spectrofluorometer analysis; assay type: functional
[28] = species on record: Rattus norvegicus; experiment: Induction of mitochondrial permeabilization in rat liver mitochondria assessed as calcium efflux in presence of ADP by calcium green based spectrofluorometer analysis; assay type: functional
[29] = tested on: SK-MEL-147; experiment: Induction of apoptosis in human SK-MEL-147 cells assessed as increase in BAX expression at 20 uM after 24 hrs by western blotting analysis; assay type: functional, cell-based
[30] = tested on: SK-MEL-147; experiment: Induction of apoptosis in human SK-MEL-147 cells assessed as effect on BCL-2 protein expression at 20 uM after 24 hrs by western blotting analysis; assay type: functional, cell-based
[31] = tested on: SK-MEL-147; experiment: Cytotoxicity against human SK-MEL-147 cells assessed as reduction in cell viability in presence of BCL2 inhibitor venetoclax; assay type: functional, cell-based
[32] = biological target: Cathepsin B (Homo sapiens, UniProt P07858); experiment: Inhibition of cathepsin B (unknown origin) using Z-FR-AMC as substrate by spectrofluorometric analysis
[33] = biological target: Procathepsin L (Homo sapiens, UniProt P07711); experiment: Inhibition of cathepsin L (unknown origin) using Z-FR-AMC as substrate by spectrofluorometric analysis
Sequence of Procathepsin L (P07711 whole entry): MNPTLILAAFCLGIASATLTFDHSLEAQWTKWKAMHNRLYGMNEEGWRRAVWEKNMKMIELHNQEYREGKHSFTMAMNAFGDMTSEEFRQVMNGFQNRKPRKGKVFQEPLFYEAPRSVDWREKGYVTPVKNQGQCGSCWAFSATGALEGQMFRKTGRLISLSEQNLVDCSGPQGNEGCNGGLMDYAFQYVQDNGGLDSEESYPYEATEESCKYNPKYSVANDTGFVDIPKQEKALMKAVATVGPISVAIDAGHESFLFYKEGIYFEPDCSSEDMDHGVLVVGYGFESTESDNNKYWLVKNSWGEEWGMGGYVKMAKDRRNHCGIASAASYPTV

## CCOC(=O)c1cc([Se]c2ccc3cc(OC)ccc3c2)c2cc(OC)ccc2n1
[1]
  Activity: Active
[2]
  Activity: Active
[3]
  EC50: 30.8 µM
[4]
  EC50: 31.3 µM
[5]
  IC50: 8.44 µM

## CCOC(=O)c1cc(C#Cc2ccc(N)cc2)c2cc(OC)ccc2n1
[1]
  Activity: Active
[2]
  Activity: Active
[3]
  EC50: 8.8 µM
[4]
  EC50: 61 µM

## CCOC(=O)c1cc([Se]c2ccccc2)c2cc(OC)ccc2n1
[1]
  Activity: Active
[2]
  Activity: Active
[3]
  EC50: 33 µM
[4]
  EC50: 102 µM

## CCOC(=O)c1cc([Se]c2ccc3ccccc3c2)c2cc(OC)ccc2n1
[1]
  Activity: Active
[2]
  Activity: Active
[3]
  EC50: 32.2 µM
[4]
  EC50: 50.7 µM

## CCOC(=O)c1cc([Se]Cc2ccccc2)c2cc(Cl)ccc2n1
[1]
  Activity: Active
[2]
  Activity: Active
[3]
  EC50: 84.5 µM
[4]
  EC50: 88.5 µM

## CCOC(=O)c1cc([Se]c2ccccc2C)c2cc(OC)ccc2n1
[1]
  Activity: Active
[2]
  Activity: Active
[3]
  EC50: 38.9 µM
[4]
  EC50: 14.9 µM

## CCOC(=O)c1cc([Se]c2ccccc2)c2cc(Br)ccc2n1
[1]
  Activity: Active
[2]
  Activity: Active
[3]
  EC50: 12.4 µM
[4]
  EC50: 20.8 µM

## CCOC(=O)c1cc([Se]c2ccc(OC)cc2)c2cc(OC)ccc2n1
[1]
  Activity: Active
[2]
  Activity: Active
[3]
  EC50: 54.3 to 150 µM
[4]
  EC50: 82.5 to 97.3 µM

## COc1ccc2nc(-c3c(Cl)cccc3Cl)cc([Se]c3ccccc3)c2c1
[1]
  Activity: Active
[2]
  Activity: Active
[3]
  EC50: > 150 µM
[4]
  EC50: 17 µM

## CCOC(=O)c1cc([Se]c2ccc3cc(OC)ccc3c2)c2cc(Cl)ccc2n1
[1]
  Activity: Active
[2]
  Activity: Active
[3]
  EC50: 16.2 µM
[4]
  EC50: 29.2 µM
[6]
  IC50: 6.35 µM
[5]
  IC50: 7.25 µM

## COc1ccc2nc(-c3cccs3)cc([Se]c3ccccc3)c2c1
[1]
  Activity: Active
[2]
  Activity: Active
[3]
  EC50: > 150 µM
[4]
  EC50: 99.8 µM

## CCOC(=O)c1cc([Se]Cc2ccccc2)c2cc(Br)ccc2n1
[1]
  Activity: Active
[2]
  Activity: Active
[3]
  EC50: 31.2 µM
[4]
  EC50: 53.6 µM

## COc1ccc2nc(-c3c(C)cccc3C)cc([Se]c3ccccc3)c2c1
[1]
  Activity: Active
[2]
  Activity: Active
[3]
  EC50: 37.3 µM
[4]
  EC50: 26.9 µM
[7]
  IC50: 12.9 µM
[6]
  IC50: 7.44 µM
[5]
  IC50: 20.4 µM

## CCOC(=O)c1cc(C#CCCO)c2cc(OC)ccc2n1
[1]
  Activity: Active
[2]
  Activity: Active
[3]
  EC50: > 150 µM
[4]
  EC50: 123 µM

## CCOC(=O)c1cc(C#Cc2ccccc2[N+](=O)[O-])c2cc(OC)ccc2n1
[1]
  Activity: Active
[2]
  Activity: Active
[3]
  EC50: > 150 µM
[4]
  EC50: 54.7 µM

## CCOC(=O)c1cc([Se]c2ccccc2)c2cc(C)ccc2n1
[8]
  Activity: inactive
[1]
  Activity: Active
[2]
  Activity: Active
[3]
  EC50: 12 µM
[4]
  EC50: 15.3 µM
[9]
  Activity: Active
[10]
  Activity: Active
[11]
  Activity: Active
[12]
  Activity: Active
[13]
  Activity: Active
[14]
  Activity: Active
[15]
  Activity: inactive
[16]
  Activity: inactive
[17]
  Activity: inactive
[18]
  Activity: inactive
[19]
  Activity: Active
[20]
  Activity: Active
[21]
  Activity: Active
[22]
  Activity: Active
[23]
  Activity: inactive
[24]
  Activity: inactive
[25]
  Activity: inactive
[26]
  Activity: inactive
[27]
  Activity: inactive
[28]
  Activity: inactive
[29]
  Activity: Active
[30]
  Activity: inactive
[31]
  Activity: Active
[32]
  IC50: Not Active
[33]
  IC50: Not Active

## CCOC(=O)c1cc([Se]c2ccccc2)c2cc(Cl)ccc2n1
[1]
  Activity: Active
[2]
  Activity: Active
[3]
  EC50: 47.1 µM
[4]
  EC50: 53 µM

## CCOC(=O)c1cc([Se]Cc2ccccc2)c2cc(OC)ccc2n1
[1]
  Activity: Active
[2]
  Activity: Active
[3]
  EC50: 40.7 µM
[4]
  EC50: 20.8 µM

## CCOC(=O)c1cc([Te]c2ccccc2)c2cc(OC)ccc2n1
[1]
  Activity: Active
[2]
  Activity: Active
[3]
  EC50: 128 µM
[4]
  EC50: 77.4 µM

## CCOC(=O)c1cc([Se]c2ccccc2)c2ccccc2n1
[1]
  Activity: Active
[2]
  Activity: Active
[3]
  EC50: 86.3 µM
[4]
  EC50: 98.2 µM
[7]
  IC50: 54 µM
[6]
  IC50: 57.5 µM
[5]
  IC50: 25.3 µM

## CCOC(=O)c1cc([Se]c2ccc(F)cc2)c2cc(OC)ccc2n1
[1]
  Activity: Active
[2]
  Activity: Active
[3]
  EC50: > 150 µM
[4]
  EC50: 134 µM
